Measured values taken from patent publication US20190030053A1, “COMPOSITION FOR INCREASING EXPRESSION OF PGC-1alpha” (BENEBIOSIS CO., LTD., priority 2016, published 2019).
“Also recorded” adds a separate entry of the source.

What was measured:
[1] = system: mouse aortic smooth muscle cells (MASMs); test: Mitochondrial superoxide production (MitoSOX Red) in MASMs of arteriosclerosis model mice; format: cell-based; conditions: MASMs from PGC-1α+/+ApoE−/− mice; SL added to culture liquid
Method: For the measurement of mitochondrial superoxide production, mitochondrial ROS was measured using MitoSOX Red (mitochondrial superoxide fluorescent marker). MASMs were extracted, and incubated with MitoSOX (4 μM) in the dark room at 37° C. for 20 minutes. The MitoSOX fluorescence was quantified by the cell fluorescence intensity read using a fluorescent plate reader (480 nm excitation/580 nm emission) (FIG. 19b).
In FIGS. 19a and 19b, MASMs were extracted from the model mouse (PGC-1α^+/+ApoE^−/−) control group, and the SL (3′-SL & 6′-SL) compositions were added to the culture liquid to conduct comparison.
FIGS. 19a and 19b show the measurement results of intercellular H2O2 (ROS values) (FIG. 19a) and the measurement results of mitochondrial superoxide production (FIG. 19b). MASMs were extracted from the model mice (PGC-1α^+/+ApoE^−/−), and the SL (3′-SL & 6′-SL) compositions were added to the culture liquid to conduct comparison.

[2] = system: Alzheimer's disease model mice (3×Tg); test: Cognitive ability test (Morris water maze) in Alzheimer's disease models; format: in vivo, mouse; conditions: 3×Tg mice, oral 0.1 mg/kg/day; test for 7 days
Description: In order to investigate the changes in gene expression and cognitive ability by the treatment with SL (3′-SL & 6′-SL) compositions in Alzheimer's brain disease models, 6-week-old mice were purchased from Central Lab Animal (Korea). Water was freely accessible, and a commercially available pellet feed (Dooyeul Biotech, Korea) was given for two weeks. At 8 weeks of age, the mice were divided into three groups (composed of eight mice for each group): Eight 8-week-old male c57/BL6 mice (normal mice; initial body weight, average 35.6±3.3 g) treated with a normal diet were used for a control group. […]

PGC-1α and related genes = test: Gene expression by SL treatment in normal mouse models; format: in vivo; conditions: normal C57BL/6 mice, oral 0.1 mg/kg/day, 10 weeks, organs, skeletal muscles, abdominal fat
Method: In order to investigate relative gene expression changes by organs compared with before SL (3′-SL & 6′-SL) aministration, 4-week-old C57BL/6 mice were purchased from Dooyeul Biotech (Korea). Water was freely accessible, and a commercially available pellet feed (Dooyeul Biotech, Korea) was given for two weeks. […]
Sialyllactose or deionized water was orally administered daily. […] The dietary intake and body weight change were measured every 5 days. […]
The gene expression changes by administration of the SL (3′-SL & 6′-SL) compositions were quantitatively compared for eight main organs (heart, hippocampus, brain, spinal cord, lung, liver, spleen, and kidney), three skeletal muscles (soleus muscle, quadriceps femoris muscle, and gastrocnemius muscle), and abdominal fat. RNA was extracted by TRIzol agent (Invitrogen). cDNA was synthesized by using RNA, which has been extracted as above and quantified, and a reverse transcription system (Promega, USA). The expression patterns of PGC-1α and related genes were measured by using pre-designed primers and probes (Applied Biosystems; PGC-1α, Mm00447181_m1, GAPDH, and Mm99999915_q1) for the synthesized cDNA and analysis targets (Fndc5, PGC-1α, Erra, UCP1, SOD2, and GPX1). […]

| SMILES | mitochondrial superoxide production [1] | escape time in the cognitive ability test (Morris water maze) [2] | expression levels of analysis targets (Fndc5, PGC-1α, Erra, UCP1) vs control group (PGC-1α and related genes) | expression levels of analysis targets (Fndc5, PGC-1α, Erra, UCP1) vs control group (PGC-1α and related genes; 0.1 mg/kg/day) |
| --- | --- | --- | --- | --- |
| CC(=O)N[C@H]1[C@H]([C@H](O)[C@H](O)CO)O[C@@](OC[C@H]2O[C@@H](O[C@H]3[C@H](O)[C@@H](O)[C@H](O)O[C@@H]3CO)[C@H](O)[C@@H](O)[C@H]2O)(C(=O)O)C[C@@H]1O [6′-SL, α-NeuNAc-(2→6)-β-D-Gal-(1→4)-D-Glc] | inhibited the mitochondrial superoxide production | definitely fast | higher than the negative control group |  |
| CC(=O)N[C@H]1[C@H]([C@H](O)[C@H](O)CO)O[C@@](O[C@H]2[C@@H](O)[C@@H](CO)O[C@@H](O[C@H]3[C@H](O)[C@@H](O)C(O)O[C@@H]3CO)[C@@H]2O)(C(=O)O)C[C@@H]1O (stereo partly drawn) [3′-SL, α-NeuNAc-(2→3)-β-D-Gal-(1→4)-D-Glc] | inhibited the mitochondrial superoxide production | relatively low compared with 6′-SL |  | higher than the negative control group; also recorded: less effective than the 6′-SL administration groups |
